Assay results published in US20030119742A1, “Methods and compositions to treat cardiovascular disease using 139, 258, 1261, 1486, 2398, 2414, 7660, 8587,10183, 10550, 12680, 17921, 32248, 60489 or 93804” (Millennium Pharmaceuticals, Inc., priority 2001, published 2003).

B1: CD40L: cytokine used to stimulate endothelial cells or monocyte/macrophages (protein, UniProt P29965 113-261, looked up)
CD40 ligand, soluble form: MQKGDQNPQIAAHVISEASSKTTSVLQWAEKGYYTMSNNLVTLENGKQLTVKRQGLYYIYAQVTFCSNREASSQAPFIASLCLKSPGRFERILLRAANTHSSAKPCGQQSIHLGGVFELQPGASVFVNVTDPSQVSHGTGFTSFGLLKL
B2: IFNgamma: cytokine used to stimulate endothelial cells or monocyte/macrophages (protein, UniProt P01579 24-161, looked up)
Interferon gamma: QDPYVKEAENLKKYFNAGHSDVADNGTLFLGILKNWKEESDRKIMQSQIVSFYFKLFKNFKDDQSIQKSVETIKEDMNVKFFNSNKKKRDDFEKLTNYSVTDLNVQRKAIHELIQVMAELSPAAKTGKRKRSQMLFRG

Columns and labels:
1486 mRNA = assay: TaqMan analysis of 1486 mRNA in livers of treated marmosets; format: in vivo, marmoset
Text: (§1) This example describes the TaqMan™ procedure. The Taqman™ procedure is a quantitative, reverse transcription PCR-based approach for detecting mRNA. The RT-PCR reaction exploits the 5′ nuclease activity of AmpliTaq Gold™ DNA Polymerase to cleave a TaqMan™ probe during PCR. Briefly, cDNA was generated from the samples of interest, e.g., heart, kidney, liver, skeletal muscle, and various vessels, and used as the starting material for PCR amplification. In addition to the 5′ and 3′ gene-specific primers, a gene-specific oligonucleotide probe (complementary to the region being amplified) was included in the reaction (i.e., the Taqman™ probe). […]
(§2) During the PCR reaction, cleavage of the probe separates the reporter dye and the quencher dye, resulting in increased fluorescence of the reporter. Accumulation of PCR products is detected directly by monitoring the increase in fluorescence of the reporter dye. When the probe is intact, the proximity of the reporter dye to the quencher dye results in suppression of the reporter fluorescence. […]

12680 mRNA = assay: TaqMan analysis of 12680 mRNA in in vivo marmoset models
Text: as §1, §2

10550 mRNA = assay: TaqMan analysis of 10550 mRNA in in vivo marmoset models
Text: as §1, §2

10183 mRNA = assay: TaqMan analysis of 10183 mRNA in in vivo marmoset models
Text: As assessed by TaqMan analysis, 10183 mRNA is repressed by probucol and cerivastatin/fenofibrate in in vivo marmoset models. Probucol is used clinically for the treatment of atherosclerosis/coronary artery disease. Genes that are regulated by probucol in animal models and/or in vitro models are predicted to be responsible for the therapeutic benefit of this agent and represent new therapeutic targets for the treatment of cardiovascular disease/atherosclerosis/dyslipidemia/lipid disorders. Fibrates are used clinically for the reduction of triglycerides and statins for the reduction of cholesterol, both well-defined risk factor for atherosclerosis/coronary artery disease. Genes that are regulated by this combination treatment in animal models and/or in vitro models are predicted to be responsible for the therapeutic benefit of these agents and represent new therapeutic targets for the treatment of cardiovascular disease/atherosclerosis/dyslipidemia/lipid disorders. […] PPAR alpha agonists are used clinically for the reduction of triglycerides and statins for the reduction of cholesterol, both well-defined risk factor for atherosclerosis/coronary artery disease. […]

1261 mRNA = assay: TaqMan analysis of 1261 mRNA in human microvascular endothelial cells (HMVEC) from the heart; format: cell-based; conditions: HMVEC from the heart treated with the factor
2414 mRNA = assay: TaqMan analysis of 2414 mRNA during cytokine stimulation of endothelial cells and monocyte/macrophages; format: cell-based; conditions: cytokine stimulation of either endothelial cells or monocyte/macrophages
Text: CD40L, TNFalpha, IL-1, and IFNgamma were used to stimulate either endothelial cells or monocyte/macrophages. These cytokines initiate/sustain the atherosclerotic pathogenesis
This example describes the TaqMan™ procedure.

2398 = conditions: endothelial cells
Text: as §1, §2

32248 mRNA = assay: TaqMan analysis of 32248 mRNA in monkey liver model; format: in vivo
Text: As assessed by TaqMan analysis, 32248 mRNA was repressed by n-3 polyunsaturated fatty acid in monkey liver model. […] Genes that are regulated by polyunsaturated fatty acids in animal models and/or in vitro models are predicted to be responsible for the therapeutic benefit of this agent and represent new therapeutic targets for the treatment of cardiovascular disease/atherosclerosis/dyslipidemia/lipid disorders. […] Cholestyramine is used clinically for the reduction of cholesterol, a defined risk factor for atherosclerosis/coronary artery disease. Genes that are regulated by cholestyramine in animal models and/or in vitro models are predicted to be responsible for the therapeutic benefit of this agent and represent new therapeutic targets for the treatment of cardiovascular disease/atherosclerosis/dyslipidemia/lipid disorders. Fibrates are used clinically for the reduction of triglycerides and statins for the reduction of cholesterol, both well-defined risk factor for atherosclerosis/coronary artery disease. Genes that are regulated by this combination treatment in animal models and/or in vitro models are predicted to be responsible for the therapeutic benefit of these agents and represent new therapeutic targets for the treatment of cardiovascular disease/atherosclerosis/dyslipidemia/lipid disorders. 32248 was highly expressed in human liver. […]

| Molecule | expression of human 1261 mRNA (1261 mRNA) | expression of 2414 mRNA (2414 mRNA) | other results |
| --- | --- | --- | --- |
| CC(C)(Sc1cc(C(C)(C)C)c(O)c(C(C)(C)C)c1)Sc1cc(C(C)(C)C)c(O)c(C(C)(C)C)c1 [probucol] | – | – | 1486 mRNA (1486 mRNA): repressed; 12680 mRNA (12680 mRNA): repressed; 10550 mRNA (10550 mRNA): repressed; 10183 mRNA (10183 mRNA): repressed |
| IL-1beta: pro-angiogenic factor interleukin 1 beta | upregulated | – | – |
| TNF-alpha | upregulated | up-regulated | – |
| VEGF | upregulated | – | 2398 expression 2398: upregulated |
| n-3 polyunsaturated fatty acid | – | – | 32248 mRNA (32248 mRNA): repressed |
| B1 | – | up-regulated | – |
| B2 | – | up-regulated | – |
